Test results as given in patent US20220411419A1, “SMALL MOLECULE MODULATORS OF MHC-I” (RetroVirox, Inc., priority 2018, published 2022).

Columns and labels:
[1] = system: downmodulation of MHC-I molecules expressed on the surface of HIV infected SupT1 cells; assay: cells; details: for EC50: Human immunodeficiency virus 1, SUP-T1, read-out: EC50 for inhibition of MHC-I downmodulation utilizing the R1 parameter; for activity at 100 µM: Human immunodeficiency virus 1, SUP-T1, read-out: R1 @ 100 μM (R1 value for MHC-I downmodulation as % of the vehicle control)
in vitro = details: human, uninfected SupT1 cells

Compound `CC1(C)Cc2cccc(OCC(=O)Nc3ccc(C4CC4)cn3)c2O1` [Compound 71, N-(5-Cyclopropylpyridin-2-yl)-2-((2,2-dimethyl-2,3-dihydrobenzofuran-7-yl)oxy)acetamide] has an EC50 [1] of 150 nM and a CC50 at 48 h (in vitro) of over 125 µM.
Work on `CC1(C)Cc2cccc(OCC(=O)Nc3ccc(Cl)nn3)c2O1` [Compound 24, N-(6-Chloropyridazin-3-yl)-2-((2,2-dimethyl-2,3-dihydrobenzofuran-7-yl)oxy)acetamide] yielded an EC50 [1] of 4500 nM and a CC50 at 48 h (in vitro) of over 100 µM.
`CC1(C)Cc2cccc(OCC(=O)Nc3ccccn3)c2O1` [Compound 7, 2-((2,2-Dimethyl-2,3-dihydrobenzofuran-7-yl)oxy)-N-(pyridin-2-yl) acetamide] showed an EC50 [1] of over 25000 nM, an activity at 100 µM [1] of 34% and a CC50 (in vitro) of over 100 µM. It also gave a CC50 at 48 h (in vitro) of over 100 µM.
`CC1(C)Cc2cccc(OCC(=O)Nc3nc(C(C)(C)C)cs3)c2O1` [Compound 23, N-(4-(tert-Butyl)thiazol-2-yl)-2-((2,2-dimethyl-2,3-dihydrobenzofuran-7-yl)oxy)acetamide] showed an EC50 [1] of 4400 nM and a CC50 at 48 h (in vitro) of over 100 µM.
Work on `COc1ccccc1CCC(=O)Nc1nc2c(s1)CCCC2` [Compound 194, 3-(2-Methoxyphenyl)-N-(4,5,6,7-tetrahydrobenzo[d]thiazol-2-yl) propanamide] yielded an EC50 [1] of 1700 nM and a CC50 at 48 h (in vitro) of 125 µM.
`CN(C(=O)CCc1cccc2c1OC(C)(C)C2)c1nc2c(s1)CCCC2` [Compound 106, 3-(2,2-Dimethyl-2,3-dihydrobenzofuran-7-yl)-N-methyl-N-(4,5,6,7-tetrahydrobenzo[d]thiazol-2-yl)propanamide] gave an EC50 [1] of 420 nM and a CC50 at 48 h (in vitro) of over 125 µM.
`Cc1csc(NC(=O)COc2cccc3[nH]ccc23)n1` [Compound 133, 2-((1H-Indol-4-yl)oxy)-N-(4-methylthiazol-2-yl)acetamide] showed an EC50 [1] of 1500 nM and a CC50 at 48 h (in vitro) of over 100 µM.
For `CC1(C)Cc2cccc(OCC(=O)Nc3nc4c(F)cccc4s3)c2O1` [Compound 147, 2-((2,2-Dimethyl-2,3-dihydrobenzofuran-7-yl)oxy)-N-(4-fluorobenzo[d]thiazol-2-yl)acetamide], the EC50 [1] was 90 nM and the CC50 at 48 h (in vitro) was over 90 µM.
`CC1(C)Cc2cccc(OCC(=O)Nc3nc(C(=O)N4CCCCC4)cs3)c2O1` [Compound 151, 2-((2,2-Dimethyl-2,3-dihydrobenzofuran-7-yl)oxy)-N-(4-(piperidine-1-carbonyl)thiazol-2-yl)acetamide] showed an EC50 [1] of over 25000 nM, an activity at 100 µM [1] of 51% and a CC50 (in vitro) of over 90 µM. It also gave a CC50 at 48 h (in vitro) of over 90 µM.
Work on `CC1(C)Cc2cccc(OCC(=O)Nc3nc4c(Cl)cccc4s3)c2O1` [Compound 145, N-(4-Chlorobenzo[d]thiazol-2-yl)-2-((2,2-dimethyl-2,3-dihydrobenzofuran-7-yl)oxy)acetamide] yielded an EC50 [1] of 91 nM and a CC50 at 48 h (in vitro) of over 90 µM.
Work on `CN(C(=O)COc1cccc2c1OC(C)(C)C2)c1ccc(Br)cn1` [Compound 78, N-(5-Bromopyridin-2-yl)-2-((2,2-dimethyl-2,3-dihydrobenzofuran-7-yl)oxy)-N-methylacetamide] yielded an EC50 [1] of 17000 nM and a CC50 at 48 h (in vitro) of over 125 µM.
`COc1c(Br)cccc1OCC(=O)N(C)c1nc2c(s1)CCCC2` [Compound 118, 2-(3-Bromo-2-methoxyphenoxy)-N-methyl-N-(4,5,6,7-tetrahydrobenzo[d]thiazol-2-yl)acetamide] gave an EC50 [1] of 2100 nM and a CC50 at 48 h (in vitro) of over 125 µM.
In the case of `Cc1ccc(N(C(=O)COc2cccc3c2OC(C)(C)C3)c2nc(C)cs2)cc1` [Compound 64, 2-((2,2-Dimethyl-2,3-dihydrobenzofuran-7-yl)oxy)-N-(4-methylthiazol-2-yl)-N-(p-tolyl)acetamide], the EC50 [1] is reported as 570 nM and the CC50 at 48 h (in vitro) is reported as over 100 µM.
`CC1(C)Cc2cccc(OCC(=O)Nc3cc4ccccc4cn3)c2O1` [Compound 17, 2-((2,2-Dimethyl-2,3-dihydrobenzofuran-7-yl)oxy)-N-(isoquinolin-3-yl) acetamide] showed an EC50 [1] of 22000 nM and a CC50 at 48 h (in vitro) of over 125 µM.
With `O=C(COc1cccc2c1OCCO2)Nc1nc2ccccc2s1` [Compound 176, N-(Benzo[d]thiazol-2-yl)-2-((2,3-dihydrobenzo[b][1,4]dioxin-5-yl)oxy) acetamide] the EC50 [1] was 8900 nM and the CC50 at 48 h (in vitro) was over 100 µM.
In the case of `Cc1ccnc(CN(C(=O)COc2cccc3c2OC(C)(C)C3)c2nc3c(s2)CCCC3)c1` [Compound 41, 2-((2,2-Dimethyl-2,3-dihydrobenzofuran-7-yl)oxy)-N-((4-methylpyridin-2-yl)methyl)-N-(4,5,6,7-tetrahydrobenzo[d]thiazol-2-yl)acetamide], the EC50 [1] is reported as 20 nM and the CC50 at 48 h (in vitro) is reported as over 125 µM.
For `CC1(C)Cc2cccc(CCC(=O)Nc3nc4c(s3)CCCC4)c2O1` [Compound 105, 3-(2,2-Dimethyl-2,3-dihydrobenzofuran-7-yl)-N-(4,5,6,7-tetrahydrobenzo[d]thiazol-2-yl)propanamide], the EC50 [1] was 390 nM and the CC50 at 48 h (in vitro) was over 125 µM.
Compound `C=Cc1ccc(NC(=O)COc2cccc3c2OC(C)(C)C3)nc1C` [Compound 74, 2-((2,2-Dimethyl-2,3-dihydrobenzofuran-7-yl)oxy)-N-(6-methyl-5-vinylpyridin-2-yl)acetamide] has an EC50 [1] of 1300 nM and a CC50 at 48 h (in vitro) of over 125 µM.
With `CC(C)c1ccc(NC(=O)COc2cccc3c2OC(C)(C)C3)nc1` [Compound 70, 2-((2,2-Dimethyl-2,3-dihydrobenzofuran-7-yl)oxy)-N-(5-isopropylpyridin-2-yl)acetamide] the EC50 [1] was 890 nM and the CC50 at 48 h (in vitro) was over 125 µM.
`Cc1cccnc1CN(C(=O)COc1cccc2c1OC(C)(C)C2)c1nc2c(s1)CCCC2` [Compound 42, 2-((2,2-Dimethyl-2,3-dihydrobenzofuran-7-yl)oxy)-N-((3-methylpyridin-2-yl)methyl)-N-(4,5,6,7-tetrahydrobenzo[d]thiazol-2-yl)acetamide] showed an EC50 [1] of 7300 nM and a CC50 at 48 h (in vitro) of over 125 µM.
For `CC1(C)Cc2cccc(OCC(=O)Nc3ccc(Br)cn3)c2O1` [Compound 66, N-(5-Bromopyridin-2-yl)-2-((2,2-dimethyl-2,3-dihydrobenzofuran-7-yl)oxy) acetamide], the EC50 [1] was 3400 nM and the CC50 at 48 h (in vitro) was over 125 µM.
`Cc1cccc(NC(=O)COc2cccc3c2OC(C)(C)C3)n1` [Compound 8, 2-((2,2-Dimethyl-2,3-dihydrobenzofuran-7-yl)oxy)-N-(6-methylpyridin-2-yl) acetamide] gave an EC50 [1] of 23000 nM and a CC50 at 48 h (in vitro) of over 100 µM.
`CN(C(=O)COc1cccc2cc[nH]c12)c1nc2c(s1)CCCC2` [Compound 128, 2-((1H-Indol-7-yl)oxy)-N-methyl-N-(4,5,6,7-tetrahydrobenzo[d]thiazol-2-yl) acetamide] showed an EC50 [1] of over 25000 nM and a CC50 at 48 h (in vitro) of over 125 µM.
`C=C(C)c1ccc(NC(=O)COc2cccc3c2OC(C)(C)C3)nc1` [Compound 69, 2-((2,2-Dimethyl-2,3-dihydrobenzofuran-7-yl)oxy)-N-(5-(prop-1-en-2-yl)pyridin-2-yl)acetamide] gave an EC50 [1] of 5000 nM and a CC50 at 48 h (in vitro) of over 125 µM.
Compound `CCCN(C(=O)COc1cccc2c1OC(C)(C)C2)c1nc2c(s1)CCCC2` [Compound 57, 2-((2,2-dimethyl-2,3-dihydrobenzofuran-7-yl)oxy)-N-propyl-N-(4,5,6,7-tetrahydrobenzo[d]thiazol-2-yl)acetamide] has an EC50 [1] of 2 nM and a CC50 at 48 h (in vitro) of over 125 µM.
`Cc1csc(NC(=O)COc2ccccc2OCc2ccccc2)n1` [Compound 141, 2-(2-(Benzyloxy)phenoxy)-N-(4-methylthiazol-2-yl)acetamide] gave an EC50 [1] of 1840 nM and a CC50 at 48 h (in vitro) of over 100 µM.
For `Cc1csc(N(C(=O)COc2cccc3c2OC(C)(C)C3)c2ccccc2)n1` [Compound 180, 2-((2,2-Dimethyl-2,3-dihydrobenzofuran-7-yl)oxy)-N-(4-methylthiazol-2-yl)-N-phenylacetamide], the EC50 [1] was 28 nM and the CC50 at 48 h (in vitro) was over 100 µM.
In the case of `CC1(C)Cc2cccc(OCC(=O)Nc3nc(C(=O)NCc4ccco4)cs3)c2O1` [Compound 154, 2-(2-((2,2-Dimethyl-2,3-dihydrobenzofuran-7-yl)oxy)acetamido)-N-(furan-2-ylmethyl)thiazole-4-carboxamide], the EC50 [1] is reported as over 25000 nM, the activity at 100 µM [1] is reported as 44% and the CC50 (in vitro) is reported as over 100 µM. The CC50 at 48 h (in vitro) was over 100 µM.
`COc1ccccc1OCC(=O)Nc1nc2cc(F)ccc2s1` [Compound 196, N-(5-Fluorobenzo[d]thiazol-2-yl)-2-(2-methoxyphenoxy)acetamide] gave an EC50 [1] of over 25000 nM, an activity at 100 µM [1] of 31% and a CC50 (in vitro) of over 100 µM. It also gave a CC50 at 48 h (in vitro) of over 100 µM.
In the case of `CC1(C)Cc2cccc(OCC(=O)Nc3nccc(C(F)(F)F)n3)c2O1` [Compound 28, 2-((2,2-Dimethyl-2,3-dihydrobenzofuran-7-yl)oxy)-N-(4-(trifluoromethyl)pyrimidin-2-yl)acetamide], the EC50 [1] is reported as over 25000 nM, the activity at 100 µM [1] is reported as 80% and the CC50 (in vitro) is reported as over 100 µM. It also gave a CC50 at 48 h (in vitro) of over 100 µM.
Compound `CC1(C)Cc2cccc(OCC(=O)Nc3ccc(Br)nn3)c2O1` [Compound 25, N-(6-Bromopyridazin-3-yl)-2-((2,2-dimethyl-2,3-dihydrobenzofuran-7-yl)oxy)acetamide] has an EC50 [1] of 3600 nM and a CC50 at 48 h (in vitro) of over 100 µM.
In the case of `CCc1ccc(N(C)C(=O)COc2cccc3c2OC(C)(C)C3)nc1` [Compound 80, 2-((2,2-Dimethyl-2,3-dihydrobenzofuran-7-yl)oxy)-N-(5-ethylpyridin-2-yl)-N-methylacetamide], the EC50 [1] is reported as 4600 nM and the CC50 at 48 h (in vitro) is reported as over 125 µM.
Work on `CC1(C)Cc2cccc(OCC(=O)N(c3ccccc3)c3nc4c(s3)CCCC4)c2O1` [Compound 94, 2-((2,2-Dimethyl-2,3-dihydrobenzofuran-7-yl)oxy)-N-phenyl-N-(4,5,6,7-tetrahydrobenzo[d]thiazol-2-yl)acetamide] yielded an EC50 [1] of 1.5 nM and a CC50 at 48 h (in vitro) of over 125 µM.
`COc1ccccc1OCC(=O)Nc1nc2cc(C)c(C)cc2s1` [Compound 191, N-(5,6-Dimethylbenzo[d]thiazol-2-yl)-2-(2-methoxyphenoxy)acetamide] gave an EC50 [1] of over 25000 nM, an activity at 100 µM [1] of 62% and a CC50 (in vitro) of over 100 µM. The CC50 at 48 h (in vitro) was over 100 µM.
Work on `CC1(C)Cc2cccc(OCC(=O)Nc3ncnc4ccccc34)c2O1` [Compound 15, 2-((2,2-Dimethyl-2,3-dihydrobenzofuran-7-yl)oxy)-N-(quinazolin-4-yl) acetamide] yielded an EC50 [1] of over 25000 nM, an activity at 100 µM [1] of 14% and a CC50 (in vitro) of over 100 µM. It also gave a CC50 at 48 h (in vitro) of over 100 µM.
